Test results taken from patent publication US11389469B2, “Targeting NAD+ to treat chemotherapy and radiotherapy induced cognitive impairment, neuropathies and inactivity” (NewSouth Innovations Pty Ltd, priority 2015, dated 2022).

What was measured:
Male Sprague-Dawley rats [1] = assay: von Frey test for mechanical allodynia (pain) after doxorubicin; assay type: in vivo, rat
Experimental: (§1) FIGS. 1A-1D. […] A) Voluntary wheel running, followed by B) the von Frey test for mechanical allodynia (pain) at day 3. At day 8, C) short term spatial memory was assessed using the novel location recognition test. At day 9, D) short term object memory was assessed using the novel object recognition test. n=8, *p<0.05, **p<0.01, ****p<0.0001. Dunn's multiple comparison test, Kruskal Wallis one-way ANOVA.
(§2) In this Example, the strategy is to raise NAD^+ levels during chemotherapy treatment by administering animals with a cell permeable NAD^+ precursor known as nicotinamide mononucleotide (NMN). […] As expected, a single dose of doxorubicin caused neurocognitive defects including reduced voluntary wheel running, increased pain, and reduced short term spatial memory (FIG. 1).

Male Sprague-Dawley rats [2] = assay: Novel location recognition test (short term spatial memory) after doxorubicin; assay type: in vivo, rat
Experimental: as §1, §2

Male Sprague-Dawley rats [3] = assay: Voluntary wheel running after doxorubicin; assay type: in vivo, rat
Experimental: as §1, §2

elderly mice = settings: reference [17]; cited from earlier work
muscle mitochondria = assay: Mitochondrial respiration in Clarke type electrode; settings: aged NMN treated mice, preliminary data FIG. 3C

Compound	pain (mechanical allodynia, von Frey test), effect of doxorubicin (Male Sprague-Dawley rats [1]; single i.p. dose of doxorubicin (4 mg/kg), day 3, male SD rats)	short term spatial memory (novel location recognition test), effect of doxorubicin (Male Sprague-Dawley rats [2]; single i.p. dose of doxorubicin (4 mg/kg), day 8, male SD rats)	voluntary wheel running, effect of doxorubicin (Male Sprague-Dawley rats [3]; single i.p. dose of doxorubicin (4 mg/kg), male SD rats)	effect of NMN on doxorubicin-increased pain (mechanical allodynia, von Frey) (Male Sprague-Dawley rats [1]; NMN in drinking water (500 mg/L) plus 200 mg/kg co-administered with doxorubicin 4 mg/kg i.p., day 3)	metabolism and aspects of ageing (elderly mice)	effect of NMN on doxorubicin-reduced short term spatial memory (novel location recognition) (Male Sprague-Dawley rats [2]; NMN in drinking water (500 mg/L) plus 200 mg/kg co-administered with doxorubicin 4 mg/kg i.p., day 8)	mitochondrial dysfunction (respiratory capacity of muscle mitochondria) (muscle mitochondria)	effect of NMN on doxorubicin-reduced voluntary wheel running (Male Sprague-Dawley rats [3]; NMN in drinking water (500 mg/L) 24 hr prior and subsequent, plus 200 mg/kg co-administered with doxorubicin 4 mg/kg i.p.)
COc1cccc2c1C(=O)c1c(O)c3c(c(O)c1C2=O)C[C@@](O)(C(=O)CO)C[C@@H]3O[C@H]1C[C@H](N)[C@H](O)[C@H](C)O1 [doxorubicin, reference compound]	increased	reduced	reduced					
Nicotinamide Mononucleotide [NMN]				reduced the effects of doxorubicin	improve metabolism and reverse aspects of ageing	reduced the effects of doxorubicin	reverse	reduced the effects of doxorubicin
NC(=O)c1ccc[n+]([C@@H]2O[C@H](CO)[C@@H](O)[C@H]2O)c1 [NR, Nicotinamide Riboside]					improve metabolism and reverse aspects of ageing			
